Test results as given in ChEMBL document CHEMBL3769343, “Spiromastilactones: A new class of influenza virus inhibitors from deep-sea fungus” (Eur J Med Chem, 2016).

Assays:
Assay type in all cases: functional, organism-based
Influenza A virus [1] = assay: Antiviral activity against oseltamivir-resistant influenza A virus LN/1109 (H1N1) infected in dog MDCK cells assessed as inhibition of virus induced cytopathic effect after 40 hrs by Cell-Titer-Glo assay
Influenza A virus [2] = assay: Antiviral activity against amantadine-resistant influenza A virus JX/312 (H3N2) infected in dog MDCK cells assessed as inhibition of virus induced cytopathic effect after 40 hrs by Cell-Titer-Glo assay
Influenza A virus [3] = assay: Antiviral activity against amantadine-resistant influenza A virus HN/1222 (H3N2) infected in dog MDCK cells assessed as inhibition of virus induced cytopathic effect after 40 hrs by Cell-Titer-Glo assay

Structure (SMILES)	EC50 (Influenza A virus [1])	EC50 (Influenza A virus [2])	EC50 (Influenza A virus [3])
CCCc1c(Cl)c(O)cc(OC)c1Oc1c(Cl)c(O)c(Cl)c2c1C(=O)O[C@@H]2CC	33.5 µM	35.3 µM	38.5 µM
NC12CC3CC(CC(C3)C1)C2 [AMANTADINE]	> 200 µM	4.28 µM	> 20.5 µM
CCOC(=O)C1=C[C@@H](OC(CC)CC)[C@H](NC(C)=O)[C@@H](N)C1 [OSELTAMIVIR]	0.82 µM	9.75 µM	> 200 µM
NC(=O)c1ncn([C@@H]2O[C@H](CO)[C@@H](O)[C@H]2O)n1 [RIBAVIRIN]	1.05 µM	1.43 µM	3.56 µM
